Data from US20180133186A1, “PREVENTATIVE TREATMENT OF ALZHEIMER'S DISEASE” (priority 2016, published 2018).
Read-outs that look alike come from different tables or passages of the source.

What was measured:
[1] = test system: CVN-AD mice; test: 2-day radial arm water maze in CVN-AD mice; assay type: in vivo, mouse; conditions: n=12
Description: Alzheimer's disease (CVN-AD) mice are modified non-human warm-blooded vertebrate animals in which a biologically active human APP polypeptide is expressed, and in which function of its inducible Nitric Oxide Synthase (iNOS) protein is reduced as compared to a non-modified animal. CVN-AD mice are described in U.S. Patent Publication No. 20090081128, the contents of which are incorporated by reference in their entirety. […] (2) Aβ deposition around blood vessels resembling pathology observed in humans with cerebral amyloid angiopathy ([…].); (3) hyperphosphorylated and aggregated mouse tau; neuronal loss; worsening behavioral deficits with time (Colton, C.); and (4) significant hippocampal and fornix volume loss (Badea, A.). […] This age in the CVN-AD mouse model is considered as representative of early Alzheimer's disease in humans (Colton, C.). The number of mice in each group is 12.

[2] = test system: Abeta peptides; test: Abeta 40 and Abeta 42 peptides in whole brain lysates of CVN-AD mice; assay type: in vivo, mouse; conditions: DFMO 0.3 or 30 mg/kg vs water, n=12
Description: The average levels of soluble Abeta 42 peptide and soluble Abeta40 peptide (plus and minus the standard error of the mean) measured in whole brain lysates are shown in FIG. 3B. […] The number of mice for each group was 12.

[3] = biological target: T1, ornithine decarboxylase (Mus musculus, UniProt P00860); test: Whole brain lysate metabolite levels related to ornithine decarboxylase activity; assay type: in vivo
T1 construct: from tissue; host or cells: brain of CVN-AD mice (in vivo dosing; whole brain lysates analysed for metabolites)
T1 sequence (P00860 1-461): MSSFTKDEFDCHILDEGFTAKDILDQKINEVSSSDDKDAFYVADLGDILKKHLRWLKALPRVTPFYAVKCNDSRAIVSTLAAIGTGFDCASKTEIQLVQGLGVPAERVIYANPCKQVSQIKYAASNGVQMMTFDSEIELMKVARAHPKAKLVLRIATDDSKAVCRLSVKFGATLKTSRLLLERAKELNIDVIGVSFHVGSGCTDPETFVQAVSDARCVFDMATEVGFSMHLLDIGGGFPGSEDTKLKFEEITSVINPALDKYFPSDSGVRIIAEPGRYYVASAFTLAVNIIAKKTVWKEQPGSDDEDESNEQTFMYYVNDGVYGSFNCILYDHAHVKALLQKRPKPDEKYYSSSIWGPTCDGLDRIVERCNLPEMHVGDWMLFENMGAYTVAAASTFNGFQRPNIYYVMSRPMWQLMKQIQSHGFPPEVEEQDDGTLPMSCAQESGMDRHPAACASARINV
Procedure: (§1) This example was carried out as schematically illustrated in FIG. 1. […] Brains from each mouse were harvested at the end the third day of the rotorod procedure. Brain tissue lysates from each mouse in the experiment were used to determine the levels of Abeta 40 and Abeta 42 peptides and brain metabolites.
Humans with Alzheimer's disease show elevation of these metabolites (Inoue K).

[4] = test system: CVN-AD mice; assay type: in vivo
Procedure: as §1

[5] = test system: humans; test: Predicted dosage for Alzheimer's Clinical Trial; assay type: in vivo, human; conditions: 6 mos-4 yrs
[6] = test system: CVN-AD mice
[7] = test system: Trypanosoma brucei gambiense; conditions: cited from earlier work; for effective dosage for successful treatment of trypanosomiasis: humans
[8] = test system: Normal volunteers; conditions: cited from earlier work
[9] = test system: melanoma; conditions: cited from earlier work
[10] = test system: melanoma; conditions: 6 g/m^2/d oral escalated to 12 g/m^2/d, n = 24; cited from earlier work
[11] = test system: humans; conditions: cited from earlier work
[12] = test system: Metastatic liver; conditions: cited from earlier work
[13] = 30 mg/kg, average +/- sem, n = 11-12 mice
[14] = 14. g/m^2/d (400 mg/kg/day) IV, n = 1055
[15] = 14.8 g/m^2/d (400 mg/kg/day) ORAL, n = 25
[16] = oral delivery [Lipton A] [Pasic T R]
[17] = 2 g/m^2/d oral, n = 16, 75 days

NCCC[C@](N)(C(=O)O)C(F)F [DFMO, alpha-difluoromethylornithine]
average number of errors in finding an escape platform after 2 days of trials, radial arm water maze ([1]; 0.3 mg/kg (0.9 mg/m^2) oral gavage 3x/wk 14 weeks vs water only): statistically significantly decreased | average number of errors in finding an escape platform after 2 days of trials, radial arm water maze ([1]; 30 mg/kg (92.5 mg/m^2) oral gavage 3x/wk 14 weeks vs water only): more so | average level of insoluble Abeta40 peptide in whole brain lysates [2]: No significant change | average level of insoluble Abeta 42 peptide in whole brain lysates [2]: No significant change | soluble Abeta 40 levels in whole brain lysates [2]: statistically significantly decreased | Observed difference, putrescine (p; significantly decreased with DFMO-treatment) ([3]; 30 mg/kg vs water only): p < 0.05 | Observed difference, spermidine (p; significantly decreased with DFMO-treatment) ([3]; 30 mg/kg vs water only): p < 0.01 | putrescine, CVN-AD brain lysate levels DFMO-treated [3, 13]: 0.49 ± 0.02 µM/g | spermidine, CVN-AD brain lysate levels DFMO-treated [3, 13]: 12.2 ± 0.63 µM/g | brain levels of putrescine compared to untreated CVN-AD mice ([3]; DFMO treatment): significantly lower | brain levels of spermidine compared to untreated CVN-AD mice ([3]; DFMO treatment): significantly lower | brain levels of spermine compared to untreated CVN-AD mice ([3]; DFMO treatment): significantly lower | Dose limiting events ([4]; 0.3 mg/kg, 14 wks): none | On target in brain ([4]; 0.3 mg/kg, 14 wks): yes | Dose limiting events ([4]; 10 mg/kg, 14 wks): none | On target in brain ([4]; 10 mg/kg, 14 wks (data not shown)): yes (data not | Dose limiting events ([4]; 30 mg/kg, 14 wks): none | On target in brain ([4]; 30 mg/kg, 14 wks): yes | adverse events in DFMO treated CVN-AD mice ([4]; dose range 0.9 to 90 mg/m2/d): No observable adverse events | Predicted Dose limiting effects ([5]; estimated human dose 36 mg/m^2 daily): none | Predicted Dose limiting effects ([5]; estimated human dose 109 mg/m^2 daily): none | Predicted Dose limiting effects ([5]; estimated human dose 328 mg/m^2 daily): none | average number of seconds on the rotorod over 3 days of testing ([6]; DFMO 0.3 or 30 mg/kg vs water only): No change | toxic effect on motor skills ([6]; at the doses used (0.3, 30 mg/kg)): no toxic effect | Efficacy: clearance of trypanosomes [7, 14]: Prolonged clearance | Efficacy: confirmed cured [7, 14]: 44% confirmed | Efficacy: probable cure [7, 14]: cured, 45% | Efficacy: clearance of brain trypanosomes [7, 15]: Partial clearance of | Efficacy: death [7, 15]: weakness). No | Efficacy: signs/symptoms of trypanosomiasis [7, 15]: Reduced | effective dosage for successful treatment of trypanosomiasis ([7]; intravenous (IV)): 14800 mg/m2/d | effective dosage for successful treatment of trypanosomiasis ([7]; orally): 14800 mg/m2/d | Other toxicity detected: vomiting/diarrhea ([8]; 0.5-3 g/m^2/d oral, n = 13): Not study limiting | dose above which ototoxicity is dose dependent, increasing toxicity ([8]; 0.5-3 g/m^2/d oral, n = 13): (12%); >1 g/m^2/d is | Ototoxicity ([8]; 0.5 g/m^2/d oral, same as placebo (12%)): (9%) same as placebo | dose with mild reversible ototoxicity (no adverse event grade assigned) [8, 16]: 1000 mg/m^2/d | Ototoxicity [9, 17]: Ototoxicity (10%) | Ototoxicity trend with dose and duration [9, 17]: Increasing with dose | dose with mild ototoxicity ([9]; oral delivery [Croghan M K]): 2000 mg/m^2/d | Other toxicity detected (low grade) [10]: 67% (low grade) | Ototoxicity, % of treated subjects [10]: Ototoxicity in 50% of | Ototoxicity, subjects affected [10]: (12/24) | Brain-based toxicity: deaths ([11]; 14. g/m^2/d IV, n = 1055): 15 deaths | Brain-based toxicity: seizures ([11]; 14. g/m^2/d IV, n = 1055): (4%) | Other toxicity detected: abdominal pain ([11]; 14. g/m^2/d IV, n = 1055): pain (37.7%), | Other toxicity detected: headache ([11]; 14. g/m^2/d IV, n = 1055): (31.2%), | Other toxicity detected: diarrhea ([11]; 14.8 g/m^2/d ORAL, n = 25): (58.3%) | Other toxicity detected: headache ([11]; 14.8 g/m^2/d ORAL, n = 25): (16.7%), | Other toxicity detected, subjects affected ([12]; 0.5 and 1 g/m^2/d IV): 0/3) at 0.5 and 1 g/m^2/d | Ototoxicity, subjects affected ([12]; 0.5 and 1 g/m^2/d IV): Ototoxicity (0/3) at 0.5 | Other toxicity detected, subjects affected ([12]; 2 g/m^2/d IV): (0/3) at 2 g/m^2/d | Ototoxicity, subjects affected ([12]; 2 g/m^2/d IV): Ototoxicity (3/3) at 2 g/m^2/d | dose with dose limiting ototoxicity [12, 16]: 1500 mg/m^2/d
